Data as given in US9447136B2, “Semisynthetic derivatives of Nystatin A1” (BLIRT S.A., priority 2012, dated 2016).
≈ marks a conversion by molar mass, not a printed value. Read-outs that look alike come from different tables or passages of the source.

How the values were obtained:
[1] = test system: CCRF-CEM; experiment: Cytotoxic activity against mammalian cells in tissue culture (MTT); assay type: cell-based, human
Outline: (§1)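 Cells at 1.2×10^4/well were exposed to serial 2× DMSO dilutions for 120 h at 37 °C: CCRF-CEM in RPMI 1640 + 10% FBS, HepG2 in MEM + 10% FBS, LLC-PK1 in Medium 199 + 3% FBS. MTT was added for 4 h and A540 read. IC50 is the concentration halving A540 versus DMSO control.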

[2] = test system: HepG2; experiment: as above; assay type: cell-based, human
Outline: as §1

[3] = test system: Candida albicans STY7; experiment: Antifungal activity towards resistant (MDR) strains; assay type: cell-based; conditions: 5674 mutant derivative, deletion of CDR2
Outline: (§2)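 Growth inhibition assessed by turbidity (A660) after serial dilution of test compounds in buffered RPMI 1640 under the approved M27-A2 protocol. The MIC was determined graphically as the concentration where absorbance fell to 20% or less of the untreated control.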

[4] = test system: Candida albicans 5674; experiment: as above; assay type: cell-based; conditions: C. albicans 5674 overexpressing CDR1 and CDR2
Outline: as §2

[5] = test system: Candida albicans B3; experiment: as above; assay type: cell-based; conditions: fluconazole sensitive, parent strain for B4
Outline: (§3)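 Broth microdilution per CLSI M27-A2 in buffered RPMI 1640 with serial compound dilutions; growth read as A660. MIC taken from A660-versus-concentration curves as the concentration giving A660 at most 20% of untreated control.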

[6] = test system: Candida albicans F2; experiment: as above; assay type: cell-based; conditions: fluconazole sensitive, parent strain for F5
Outline: as §3

[7] = test system: Candida albicans STY31; experiment: as above; assay type: cell-based; conditions: 5674 mutant derivative, deletion of CDR1 and CDR2
Outline: as §2

[8] = test system: Candida albicans F5; experiment: as above; assay type: cell-based; conditions: fluconazole-resistant due to the overexpression of CaMDR1 and ERG11
Outline: as §2

[9] = test system: Candida albicans B4; experiment: as above; assay type: cell-based; conditions: fluconazole-resistant due to the overexpression of CaMDR1
Outline: as §2

[10] = test system: Candida albicans Gu5; experiment: as above; assay type: cell-based; conditions: fluconazole-resistant due to the overexpression of CDR1 and CDR2
Outline: as §3

[11] = test system: Candida albicans STY19; experiment: as above; assay type: cell-based; conditions: 5674 mutant derivative, deletion of CDR1
Outline: as §2

[12] = test system: Candida albicans Gu4; experiment: as above; assay type: cell-based; conditions: fluconazole sensitive, parent strain for Gu5
Outline: as §3

[13] = test system: Human erythrocytes; experiment: Hemotoxicity (hemolytic activity); conditions: human erythrocytes; for EH10: concentration causing 10% of hemolysis
Outline: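 Human erythrocytes in saline (2×10^7/ml) were incubated with serially diluted compound at 37 °C for 30 min, then centrifuged. Released hemoglobin was read as A540 against 0.1% Triton X-100 as full hemolysis. EH50 is the interpolated concentration giving 50% of the control A540.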

[14] = test system: Candida parapsilosis DSM 5784; experiment: Antifungal activity in vitro, serial dilution in RPMI 1640; assay type: cell-based; conditions: Table 2B
Outline: (§4)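 Broth serial dilution per M27-A2 in buffered RPMI 1640, pH 7.0. Growth read as optical density at 531 nm; IC50 interpolated as concentration giving 50% of control A531, MIC as lowest concentration giving at most 20% of control A531.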

[15] = test system: Candida dubliniensis CBS 7987; experiment: as above; assay type: cell-based; conditions: Table 2B
Outline: as §4

[16] = test system: Candida lusitaniae DSM 70102; experiment: as above; assay type: cell-based; conditions: Table 2A; RPMI 1640, pH 7.0
Outline: as §4

[17] = test system: Candida quilliermondii DSM 11947; experiment: as above; assay type: cell-based; conditions: Table 2B
Outline: as §4

[18] = test system: Candida stellatoidea CBS 1905; experiment: as above; assay type: cell-based; conditions: Table 2B
Outline: as §4

[19] = test system: Candida glabrata DSM 11226; experiment: as above; assay type: cell-based; conditions: Table 2A; RPMI 1640, pH 7.0
Outline: as §4

[20] = test system: Saccharomyces cerevisiae ATCC 9763; experiment: as above; assay type: cell-based; conditions: for Antifungal activity Saccharomyces cerevisiae ATCC 9763 MIC: Table 2A, RPMI 1640, pH 7.0, A531 at most 20% of control; for MIC Saccharomyces cerevisiae ATCC 9763: Table 2B
Outline: as §4

[21] = test system: Candida arborea KKP 319; experiment: as above; assay type: cell-based; conditions: Table 2B
Outline: as §4

[22] = test system: Candida tropicalis KKP 334; experiment: as above; assay type: cell-based; conditions: Table 2A; RPMI 1640, pH 7.0
Outline: as §4

[23] = test system: Candida lipolytica KKP 322; experiment: as above; assay type: cell-based; conditions: Table 2B
Outline: as §4

[24] = test system: Trichoderma viride LOCK E159; experiment: as above; assay type: cell-based; conditions: Table 2B
Outline: as §4

[25] = test system: Candida albicans ATCC 10231; experiment: as above; assay type: cell-based; conditions: for Antifungal activity Candida albicans ATCC 10231 IC50 / Antifungal activity Candida albicans ATCC 10231 MIC: Table 2A, RPMI 1640, pH 7.0; for Antifungal activity Candida albicans ATCC 10231 IC50: A531 50% of control; for Antifungal activity Candida albicans ATCC 10231 MIC: A531 at most 20% of control; for MIC Candida albicans ATCC 10231: Table 2B
Outline: as §4

[26] = test system: Aspergillus niger LOCK E201; experiment: as above; assay type: cell-based; conditions: Table 2B
Outline: as §4

[27] = test system: Candida krusei DSM 6128; experiment: as above; assay type: cell-based; conditions: Table 2A; RPMI 1640, pH 7.0
Outline: as §4

[28] = test system: Candida pseudotropicalis KKP 324; experiment: as above; assay type: cell-based; conditions: Table 2B
Outline: as §4

[29] = test system: LLC-PK1; experiment: Cytotoxic activity against mammalian cells in tissue culture (MTT); assay type: cell-based, pig
Outline: as §1

[30] = assay type: physicochemical
Description: As described herein, a compound of the invention may also be provided in the form of a complex, with a complexing agent.

Row | Compound | MIC Candida albicans STY7 [3] | MIC Candida albicans 5674 [4] | MIC Candida albicans B3 [5] | MIC Candida albicans F2 [6] | MIC Candida albicans STY31 [7] | MIC Candida albicans F5 [8] | MIC Candida albicans B4 [9] | MIC Candida albicans Gu5 [10] | MIC Candida albicans STY19 [11] | MIC Candida albicans Gu4 [12] | EH10 [13] | MIC Candida parapsilosis DSM 5784 [14] | MIC Candida dubliniensis CBS 7987 [15] | Antifungal activity Candida lusitaniae DSM 70102 MIC [16] | MIC Candida quilliermondii DSM 11947 [17] | MIC Candida stellatoidea CBS 1905 [18] | Antifungal activity Candida glabrata DSM 11226 MIC [19] | Antifungal activity Saccharomyces cerevisiae ATCC 9763 MIC [20] | MIC Saccharomyces cerevisiae ATCC 9763 [20] | MIC Candida arborea KKP 319 [21] | also measured
1 | CC1OC(O[C@H]2/C=C/C=C/C=C/C=C/CC/C=C/C=C/[C@H](C)[C@@H](O)[C@@H](C)[C@H](C)OC(=O)C[C@H](O)C[C@H](O)C[C@H](O)CC[C@@H](O)[C@H](O)CC3(O)C[C@H](O)[C@@H](C(=O)O)[C@H](C2)O3)C(O)C(NC(=S)NCC(C)(C)CN(C)C)C1O (stereo partly shown) [Compound N19, N-{3-[3-(N,N-dimethylamino)-2,2-dimethylpropyl]thioureidyl}nystatin A1] | 4 µg/mL (≈ 3.64 µM) | 4 µg/mL (≈ 3.64 µM) | 4 µg/mL (≈ 3.64 µM) | 4 µg/mL (≈ 3.64 µM) | 4 µg/mL (≈ 3.64 µM) | 4 µg/mL (≈ 3.64 µM) | 4 µg/mL (≈ 3.64 µM) | 4 µg/mL (≈ 3.64 µM) | 4 µg/mL (≈ 3.64 µM) | 4 µg/mL (≈ 3.64 µM) | 209.91 µg/mL | 4 µg/mL (≈ 3.64 µM) | 4 µg/mL (≈ 3.64 µM) | 4 µg/mL | 4 µg/mL (≈ 3.64 µM) | 8 µg/mL (≈ 7.28 µM) | 8 µg/mL | 4 µg/mL | 4 µg/mL (≈ 3.64 µM) | 4 µg/mL (≈ 3.64 µM) | Cytotoxicity IC50 CCRF-CEM ([1]; CCRF-CEM, 120 h, MTT): >100 µg/mL; Cytotoxicity IC50 HepG2 ([2]; HepG2, 120 h, MTT): >100 µg/mL; Antifungal activity Candida tropicalis KKP 334 MIC [22]: 4 µg/mL; MIC Candida lipolytica KKP 322 [23]: 4 µg/mL (≈ 3.64 µM); MIC Trichoderma viride LOCK E159 [24]: 8 µg/mL (≈ 7.28 µM); Antifungal activity Candida albicans ATCC 10231 IC50 [25]: 2.90 µg/mL; Antifungal activity Candida albicans ATCC 10231 MIC [25]: 4 µg/mL; MIC Candida albicans ATCC 10231 [25]: 4 µg/mL (≈ 3.64 µM); MIC Aspergillus niger LOCK E201 [26]: 8 µg/mL (≈ 7.28 µM); Antifungal activity Candida krusei DSM 6128 MIC [27]: 8 µg/mL; MIC Candida pseudotropicalis KKP 324 [28]: 4 µg/mL (≈ 3.64 µM); Cytotoxicity IC50 LLC-PK1 ([29]; LLC-PK1, 120 h, MTT): >100 µg/mL
2 | CCCN(CC(=O)C(O)C(O)C(O)CO)C1C(O)C(C)OC(OC2C=CC=CC=CC=CCCC=CC=CC(C)C(O)C(C)C(C)OC(=O)CC(O)CC(O)CCC(O)C(O)CC(O)CC3(O)CC(O)C(C(=O)O)C(C2)O3)C1O.CNCC(O)C(O)C(O)C(O)CO [Compound N59, N-methyl-D-glucamine salt of N-fructosyl-N-n-propylnystatin A1] |  |  |  |  |  |  |  |  |  |  |  |  |  |  |  |  |  |  |  |  | water solubility of the salt [30]: water soluble
3 | C[C@@H]1[C@H](O)[C@@H](C)/C=C/C=C/CC/C=C/C=C/C=C/C=C/C(O[C@H]2O[C@H](C)[C@@H](O)[C@H](N)[C@@H]2O)CC2O[C@](O)(CC(O)C(O)CCC(O)CC(O)CC(O)CC(=O)O[C@H]1C)CC(O)C2C(=O)O (stereo partly shown) [Nystatin, Nystatin A1] | 1 µg/mL (≈ 1.08 µM) | 1 µg/mL (≈ 1.08 µM) | 0.5 µg/mL (≈ 0.54 µM) | 1 µg/mL (≈ 1.08 µM) | 1 µg/mL (≈ 1.08 µM) | 1 µg/mL (≈ 1.08 µM) | 1 µg/mL (≈ 1.08 µM) | 1 µg/mL (≈ 1.08 µM) | 1 µg/mL (≈ 1.08 µM) | 0.5 µg/mL (≈ 0.54 µM) | 22.13 µg/mL | 1 µg/mL (≈ 1.08 µM) | 1 µg/mL (≈ 1.08 µM) | 0.25 µg/mL | 0.5 µg/mL (≈ 0.54 µM) | 1 µg/mL (≈ 1.08 µM) | 1 µg/mL | 0.5 µg/mL | 0.5 µg/mL (≈ 0.54 µM) | 1 µg/mL (≈ 1.08 µM) | Cytotoxicity IC50 CCRF-CEM [1]: >100 µg/mL; Cytotoxicity IC50 HepG2 [2]: 24.9 ± 2.332 µg/mL; % of hemolysis at the concentration 60 μg ml^−1 ([13]; 60 μg ml^−1): 100%; % of hemolysis at the concentration 300 μg ml^−1 ([13]; 300 μg ml^−1): 100%; Antifungal activity Candida tropicalis KKP 334 MIC [22]: 0.5 µg/mL; MIC Candida lipolytica KKP 322 [23]: 0.5 µg/mL (≈ 0.54 µM); MIC Trichoderma viride LOCK E159 [24]: 1 µg/mL (≈ 1.08 µM); Antifungal activity Candida albicans ATCC 10231 IC50 [25]: 0.23 µg/mL; Antifungal activity Candida albicans ATCC 10231 MIC [25]: 0.5 µg/mL; MIC Candida albicans ATCC 10231 [25]: 0.5 µg/mL (≈ 0.54 µM); MIC Aspergillus niger LOCK E201 [26]: 1 µg/mL (≈ 1.08 µM); Antifungal activity Candida krusei DSM 6128 MIC [27]: 1 µg/mL; MIC Candida pseudotropicalis KKP 324 [28]: 1 µg/mL (≈ 1.08 µM); Cytotoxicity IC50 LLC-PK1 [29]: >100 µg/mL
